Measurements taken from patent publication US20040072146A1, “Mechanism of mitochondrial membrane permeabilization by HIV-1 Vpr, mimetics of Vpr and methods of screening active molecules having the ability to alter and/or prevent and/or mimic the interaction of Vpr with ANT” (priority 2000, published 2004).
“Also recorded” adds a separate entry of the source. Where a SMILES comes first, the peptide text is derived from it.

Assays:
[1] = molecular target: biotinylated Vpr52-96 (Human immunodeficiency virus type 1 group M subtype B, UniProt P69726); type: binding, HIV-1
[2] = tested on: isolated mitochondria; experiment: Electron microscopy of isolated mitochondria (matrix swelling); type: biochemical; conditions: pre-incubation of mitochondria
Description: C. Ultrastructural effects of Vpr on isolated mitochondria.

[3] = tested on: purified mitochondria; experiment: Inner versus outer mitochondrial membrane permeabilization (NADH oxidation, cytochrome c oxidation); type: biochemical; conditions: for prevention of Vpr-mediated inner MMP to NADH: preincubation 10 min, Bcl-2 0.8 μM, BA 10 μM
Experimental: A. Respirometry performed after addition of NADH and Vpr52-96 (1 μM). Numbers along the traces are nmol of O2 consumed min^−1 mg^−1 protein.
B. Kinetics of Vpr52-96 induced inner membrane permeabilization to NADH and outer membrane permeabilization to reduced cytochrome c. Oxygen consumption was determined in the presence of 2 mM NADH (full squares) as in A (traces C-D) and cytochrome c (15 μM) oxidation (open circles) was spectrofluorometrically measured, as described Rustin et al., 1994). The 100% value of cytochrome c oxidation was determined by addition of 2.5 mM laurylmaltoside.
Oxygen consumption of purified mitochondria was measured as in FIG. 5 after addition of succinate+CCCP or NADH, as indicated.

[4] = tested on: purified mitochondria; experiment: ΔΨm dissipation in purified mitochondria (JC-1 flow cytometry); type: biochemical; conditions: 5 μM CsA, 50 μM BA, 0.8 μM Bcl-2, 2 μM PA10
Experimental: Numbers indicate the percentage of JC-1^high and JC-1^low mitochondria among ˜10^4 events.
E. Quantitation of the frequency of JC-1^low mitochondria (X±SD, n=5) after incubation with different Vpr-derived peptides.

[5] = tested on: purified mitochondria; experiment: FITC-Vpr52-96 binding to purified mitochondria; conditions: pre-incubation of the organelles
Experimental: Mitochondria were left unstained (insert in Co.) or exposed to the ΔΨm-insensitive mitochondrial dye MitoTracker® Green (75 nM), alone (MTG) or with 0.5 μM of FITC-Vpr52-96; green fluorescence), in combination with the ΔΨm-sensitive mitochondrial dye MitoTracker® Red (CMXRos; red Fluorescence) followed by cytofluorometric two-color analysis. Numbers indicate the percentage of mitochondria in each quadrant.
Mitochondria were incubated with the indicated inhibitors, and then exposed for 30 min at RT with 5 μM biotinylated Vpr52-96. Mitochondria were lysed either after incubation with biotinylated Vpr52-96 (upper panel) or lysed before (lower panel) with Tris/HCl as described in materials and methods. Biotinylated Vpr52-96 complexed with its mitochondrial ligands was retained on avidin-agarose and subjected to immunoblot detection of ANT.

[6] = molecular target: T1, ANT-proteoliposomes (Rattus norvegicus, UniProt Q05962); experiment: FITC-labeled Vpr52-96 binding onto ANT-liposomes and plain liposomes; conditions: BA 50 μM; Bcl-2 800 nM
T1 construct: ANT is purified from rat heart and reconstituted in liposomes; from tissue; host or cells: rat heart (ANT)
T1 sequence (Q05962 1-298): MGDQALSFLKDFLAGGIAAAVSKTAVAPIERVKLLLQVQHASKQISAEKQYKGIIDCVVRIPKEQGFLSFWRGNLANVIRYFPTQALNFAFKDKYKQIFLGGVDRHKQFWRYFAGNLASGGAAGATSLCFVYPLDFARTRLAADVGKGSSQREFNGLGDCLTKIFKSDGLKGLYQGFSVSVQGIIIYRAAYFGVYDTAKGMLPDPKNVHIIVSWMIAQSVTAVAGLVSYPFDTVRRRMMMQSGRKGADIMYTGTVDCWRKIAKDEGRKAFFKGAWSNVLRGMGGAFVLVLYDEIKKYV
Experimental: A. Dose-response curve of FITC-labeled Vpr52-96 binding onto ANT-liposomes and plain liposomes.
B. Binding of FITC-Vpr52-96 (2 μM) to plain liposomes, ANT-proteoliposomes, in the presence or absence of BA (50 μM).

[7] = molecular target: biotin-Vpr52-96 (HIV-1) (UniProt P12520); experiment: SPR, Langmuir isotherm, peptide on biotinylated Vpr52-96
[8] = molecular target: T2, ANT (Rattus norvegicus, UniProt Q05962); experiment: Single channel recordings in planar lipid bilayers; type: biochemical
T2 construct: from tissue
T2 sequence (Q05962 whole entry, looked up): T1 sequence (Q05962 1-298)
Experimental: FIG. 3 presents electrophysiological properties of Vpr52-96 and ANT in planar lipid bilayers. Current fluctuations of Vpr52-96 (80 nM, +150 mV), Vpr52-96(0.4 nM, +100 mV), ANT (1 nM, +110 mV) and Vpr52-96+ANT (0.4:1 nM, +115 mV) and associated histograms (right) of conductance levels are shown.
Current fluctuations of Vpr52-96 (80 nM, +150 mV), Vpr52-96 (0.4 nM, +100 mV), ANT (1 nM, +110 mV) and Vpr52-96+ANT (0.4:1 nM, 115 mV) after incorporation into synthetic membranes. Single channel recordings were performed using the “Tip-Dip” technique. The recordings shown are representative for at least three independent determinations.
B. Statistical analysis of conductances obtained in A. Results were expressed as current distributions at different voltages. Conductances (γ; in picosiemens, pS) are calculated by division of current by voltage.

[9] = tested on: COS cells; experiment: ΔΨm dissipation in intact microinjected cells (JC-1); type: cell-based
Description: A. Vpr52-96-induced ΔΨm dissipation induced in intact cells.

[10] = tested on: purified mitochondria; experiment: Respirometry of purified mitochondria, respiratory control; type: biochemical; conditions: for effect on respiratory control (RC): 1 μM peptide, 10 min
Experimental: A. Oxygen consumption curves after addition of the indicated agents. Trace a: control mitochondria (no pretreatment). Trace b: mitochondria pretreated for 10 min with 1 μM Vpr52-96. Numbers along the traces are nmol of O2 consumed min^−1 mg^31 1 protein.
B. Respiratory control (RC) values calculated by dividing oxygen consumption in the presence of CCCP by that measured with oligomycin (determined as in A), 10 min after addition of 1 μM of Vpr-derived peptides (mean values of 3 determinations).

[11] = molecular target: T3, adenine nucleotide translocator (ANT), native purified protein (rat), Q05962; experiment: cell-based or functional assay
T3 chain: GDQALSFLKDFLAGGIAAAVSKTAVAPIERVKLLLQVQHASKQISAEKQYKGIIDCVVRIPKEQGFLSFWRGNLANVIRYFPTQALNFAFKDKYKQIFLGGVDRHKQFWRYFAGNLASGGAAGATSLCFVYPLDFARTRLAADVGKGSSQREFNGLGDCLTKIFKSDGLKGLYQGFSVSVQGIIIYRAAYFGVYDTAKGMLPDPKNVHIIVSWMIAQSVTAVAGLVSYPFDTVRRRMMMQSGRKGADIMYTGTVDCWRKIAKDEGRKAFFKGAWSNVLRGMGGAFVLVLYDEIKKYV

[12] = molecular target: T4, adenine nucleotide translocator (ANT), native purified protein (rat, UniProt Q05962 2-298); experiment: not stated (summary paragraph)
T4 construct: mature; also called adenine nucleotide translocase; ADP/ATP carrier
T4 sequence: T3 chain

[13] = molecular target: biotin-Vpr52-96 (HIV-1), P12520; experiment: SPR, immobilised biotin-Vpr52-96, detergent-solubilized ANT as analyte

C[C@H](NC(=O)[C@H](Cc1ccccc1)NC(=O)[C@H](Cc1ccc(O)cc1)NC(=O)[C@H](CCCNC(=N)N)NC(=O)[C@H](Cc1c[nH]c2ccccc12)NC(=O)[C@H](Cc1ccccc1)NC(=O)[C@H](CCC(N)=O)NC(=O)[C@@H](NC(=O)[C@H](CCCNC(=N)N)NC(=O)[C@H](CCCCN)NC(=O)[C@@H](N)CC(=O)O)[C@@H](C)O)C(=O)NCC(=O)N[C@@H](CC(N)=O)C(=O)O [ANT104-116] (H-DKRTQFWRYFAGN-OH; N-terminus and C-terminus assumed)
Kd ([1]; read-out: calculated KD of binding of ANT104-116 to biotinylated Vpr52-96, Langmuir isotherm): 35 µM

CO[C@H](C/C=C\C=C\CC/C=C/C[C@H](C)/C=C/C(=C\C(=O)O)CC(=O)O)/C(C)=C\C=C(/C)C(=O)O [bongkrekic acid, reference compound]
inhibition of Vpr-induced matrix swelling [2]: inhibited | prevention of Vpr-mediated inner MMP to NADH [3]: prevented the Vpr-mediated inner MMP to NADH | inhibition of Vpr-induced ΔΨm loss in purified mitochondria [4]: inhibited | effect on binding of Vpr52-96 to purified mitochondria [5]: partially reduced | effect on Vpr52-96 binding to ANT liposomes (membrane-associated ANT) [6]: inhibited

C=C(C)[C@H]1Cc2c(ccc3c2O[C@@H]2COc4cc(OC)c(OC)cc4[C@@H]2C3=O)O1 [rotenone, reference compound]
sensitivity of Vpr-stimulated, NADH-dependent O2 consumption [3]: fully sensitive to rotenone

ANT-2-derived peptide ANT104-116
Kd [7]: 35 µM

Bax: pro-apoptotic Bcl-2 family protein added to Vpr52-96-ANT channels
mean conductance of Vpr52-96-ANT channels with Bax ([8]; Vpr52-96+ANT+Bax 0.4:1:0.3 nM, +75 mV): 245±2 S

Bcl-2: recombinant human Bcl-2 protein
inhibition of Vpr-induced matrix swelling [2]: inhibited; also recorded: strongly reduced | effect on formation of Vpr52-96 induced channels in ANT-containing lipid bilayers ([8]; Vpr52-96+ANT+Bcl-2 0.4:1:1 nM): abolished the formation of Vpr52-96 induced channels in ANT-containing lipid bilayers | prevention of Vpr-mediated inner MMP to NADH [3]: prevented the Vpr-mediated inner MMP to NADH | inhibition of Vpr-induced ΔΨm loss in purified mitochondria [4]: inhibited; also recorded: strongly reduced | prevention of Vpr effects on intact cells ([9]; microinjected, Bcl-2 10 μM, PA10 2 μM): prevented | effect on binding of Vpr52-96 to purified mitochondria [5]: failed to impair the binding of Vpr52-96 to purified mitochondria | binding to Vpr52-96 [1]: did not bind Vpr52-96 | effect on Vpr52-96 binding to ANT liposomes (membrane-associated ANT) [6]: reduced Vpr52-96 binding

HFRIGCRHSRIG [Vpr71-82]
effect on respiratory control (RC) [10]: also reduced the RC values

Vpr: proapoptotic 96 amino acid HIV-1 regulatory protein, full length Vpr1-96 (DTWAGVEAIIRILQQLLFIHFRIGCRHSRIGVTRQRRARNGASRS)
effect on respiratory control (RC) [10]: also reduced the RC values | oxidation rate accompanying loss of RC ([10]; short-term incubation): not associated with a significant decrease of the oxidation rate | ΔΨm loss in intact cells ([9]; extracellular addition): induced a rapid ΔΨm loss, before nuclear condensation occurred

B1: Vpr52-96, P12520 52-96 (peptide)
peptide: DTWAGVEAIIRILQQLLFIHFRIGCRHSRIGVTRQRRARNGASRS
modifications: not checked
conductance of Vpr52-96-ANT channels in the presence of Bax [11]: 245 pS | conductance of channels formed by ANT and Vpr52-96 in planar lipid bilayers [11]: 190 pS

B2: HIV-1 Vpr (other)
chain: B1 peptide
notes: also called viral protein R
Kd [12]: 0.001 µM

B3: adenine nucleotide translocator (ANT), native purified protein, Q05962 2-298 (protein)
chain: T3 chain
Kd [13]: 0.0097 µM
